BigSolDB 2.1

`CC(=O)NC1CCSC1=O` (stereo not given) showed a solubility (mole fraction) (in 2-butoxyethanol, 278.15 K) of 0.0606, a solubility (mole fraction) (in 2-butoxyethanol, 283.15 K) of 0.0701 and a solubility (mole fraction) (in 2-butoxyethanol, 288.15 K) of 0.0776. It also gave a solubility (mole fraction) (in 2-butoxyethanol, 293.15 K) of 0.0895, a solubility (mole fraction) (in 2-butoxyethanol, 298.15 K) of 0.102 and a solubility (mole fraction) (in 2-butoxyethanol, 303.15 K) of 0.116. It also gave a solubility (mole fraction) (in 2-butoxyethanol, 308.15 K) of 0.132, a solubility (mole fraction) (in 2-butoxyethanol, 313.15 K) of 0.15 and a solubility (mole fraction) (in 2-butoxyethanol, 318.15 K) of 0.175. For the same molecule, the solubility (mole fraction) (in 2-butoxyethanol, 323.15 K) was 0.199, the solubility (mole fraction) (in 2-ethoxyethanol, 278.15 K) was 0.0952 and the solubility (mole fraction) (in 2-ethoxyethanol, 283.15 K) was 0.108. It also gave a solubility (mole fraction) (in 2-ethoxyethanol, 288.15 K) of 0.121, a solubility (mole fraction) (in 2-ethoxyethanol, 293.15 K) of 0.141 and a solubility (mole fraction) (in 2-ethoxyethanol, 298.15 K) of 0.158. It also gave a solubility (mole fraction) (in 2-ethoxyethanol, 303.15 K) of 0.176, a solubility (mole fraction) (in 2-ethoxyethanol, 308.15 K) of 0.199 and a solubility (mole fraction) (in 2-ethoxyethanol, 313.15 K) of 0.223. For the same molecule, the solubility (mole fraction) (in 2-ethoxyethanol, 318.15 K) was 0.248, the solubility (mole fraction) (in 2-ethoxyethanol, 323.15 K) was 0.278 and the solubility (mole fraction) (in 2-methoxyethanol, 278.15 K) was 0.132. For the same molecule, the solubility (mole fraction) (in 2-methoxyethanol, 283.15 K) was 0.15, the solubility (mole fraction) (in 2-methoxyethanol, 288.15 K) was 0.169 and the solubility (mole fraction) (in 2-methoxyethanol, 293.15 K) was 0.189. For the same molecule, the solubility (mole fraction) (in 2-methoxyethanol, 298.15 K) was 0.21, the solubility (mole fraction) (in 2-methoxyethanol, 303.15 K) was 0.233 and the solubility (mole fraction) (in 2-methoxyethanol, 308.15 K) was 0.255. The solubility (mole fraction) (in 2-methoxyethanol, 313.15 K) was 0.279, the solubility (mole fraction) (in 2-methoxyethanol, 318.15 K) was 0.31 and the solubility (mole fraction) (in 2-methoxyethanol, 323.15 K) was 0.344. It also gave a solubility (mole fraction) (in 2-propoxyethanol, 278.15 K) of 0.0753, a solubility (mole fraction) (in 2-propoxyethanol, 283.15 K) of 0.0874 and a solubility (mole fraction) (in 2-propoxyethanol, 288.15 K) of 0.0976. For the same molecule, the solubility (mole fraction) (in 2-propoxyethanol, 293.15 K) was 0.11, the solubility (mole fraction) (in 2-propoxyethanol, 298.15 K) was 0.123 and the solubility (mole fraction) (in 2-propoxyethanol, 303.15 K) was 0.138. The solubility (mole fraction) (in 2-propoxyethanol, 308.15 K) was 0.158, the solubility (mole fraction) (in 2-propoxyethanol, 313.15 K) was 0.179 and the solubility (mole fraction) (in 2-propoxyethanol, 318.15 K) was 0.203. It also gave a solubility (mole fraction) (in 2-propoxyethanol, 323.15 K) of 0.23, a solubility (mole fraction) (in ethanol, 278.15 K) of 0.0355 and a solubility (mole fraction) (in ethanol, 283.15 K) of 0.0439. The solubility (mole fraction) (in ethanol, 288.15 K) was 0.055, the solubility (mole fraction) (in ethanol, 293.15 K) was 0.0699 and the solubility (mole fraction) (in ethanol, 298.15 K) was 0.0866. The solubility (mole fraction) (in ethanol, 303.15 K) was 0.107, the solubility (mole fraction) (in ethanol, 308.15 K) was 0.132 and the solubility (mole fraction) (in ethanol, 313.15 K) was 0.164. It also gave a solubility (mole fraction) (in ethanol, 318.15 K) of 0.201, a solubility (mole fraction) (in ethanol, 323.15 K) of 0.243 and a solubility (mole fraction) (in ethyl acetate, 278.15 K) of 0.0168. The solubility (mole fraction) (in ethyl acetate, 283.15 K) was 0.0199, the solubility (mole fraction) (in ethyl acetate, 288.15 K) was 0.0235 and the solubility (mole fraction) (in ethyl acetate, 293.15 K) was 0.0283. It also gave a solubility (mole fraction) (in ethyl acetate, 298.15 K) of 0.0325, a solubility (mole fraction) (in ethyl acetate, 303.15 K) of 0.0388 and a solubility (mole fraction) (in ethyl acetate, 308.15 K) of 0.0455. For the same molecule, the solubility (mole fraction) (in ethyl acetate, 313.15 K) was 0.0546, the solubility (mole fraction) (in ethyl acetate, 318.15 K) was 0.0649 and the solubility (mole fraction) (in ethyl acetate, 323.15 K) was 0.0772. The solubility (mole fraction) (in methanol, 278.15 K) was 0.0713, the solubility (mole fraction) (in methanol, 283.15 K) was 0.0887 and the solubility (mole fraction) (in methanol, 288.15 K) was 0.111. It also gave a solubility (mole fraction) (in methanol, 293.15 K) of 0.137, a solubility (mole fraction) (in methanol, 298.15 K) of 0.165 and a solubility (mole fraction) (in methanol, 303.15 K) of 0.192. For the same molecule, the solubility (mole fraction) (in methanol, 308.15 K) was 0.222, the solubility (mole fraction) (in methanol, 313.15 K) was 0.253 and the solubility (mole fraction) (in methanol, 318.15 K) was 0.288. The solubility (mole fraction) (in methanol, 323.15 K) was 0.321, the solubility (mole fraction) (in methyl acetate, 278.15 K) was 0.0229 and the solubility (mole fraction) (in methyl acetate, 283.15 K) was 0.0271. It also gave a solubility (mole fraction) (in methyl acetate, 288.15 K) of 0.033, a solubility (mole fraction) (in methyl acetate, 293.15 K) of 0.0401 and a solubility (mole fraction) (in methyl acetate, 298.15 K) of 0.0478. For the same molecule, the solubility (mole fraction) (in methyl acetate, 303.15 K) was 0.0559, the solubility (mole fraction) (in methyl acetate, 308.15 K) was 0.0673 and the solubility (mole fraction) (in methyl acetate, 313.15 K) was 0.081. The solubility (mole fraction) (in methyl acetate, 318.15 K) was 0.0965, the solubility (mole fraction) (in methyl acetate, 323.15 K) was 0.119 and the solubility (mole fraction) (in n-butanol, 278.15 K) was 0.0244. It also gave a solubility (mole fraction) (in n-butanol, 283.15 K) of 0.0301, a solubility (mole fraction) (in n-butanol, 288.15 K) of 0.0388 and a solubility (mole fraction) (in n-butanol, 293.15 K) of 0.047. For the same molecule, the solubility (mole fraction) (in n-butanol, 298.15 K) was 0.0574, the solubility (mole fraction) (in n-butanol, 303.15 K) was 0.0692 and the solubility (mole fraction) (in n-butanol, 308.15 K) was 0.0846. It also gave a solubility (mole fraction) (in n-butanol, 313.15 K) of 0.104, a solubility (mole fraction) (in n-butanol, 318.15 K) of 0.128 and a solubility (mole fraction) (in n-butanol, 323.15 K) of 0.159. It also gave a solubility (mole fraction) (in n-butyl acetate, 278.15 K) of 0.0119, a solubility (mole fraction) (in n-butyl acetate, 283.15 K) of 0.0141 and a solubility (mole fraction) (in n-butyl acetate, 288.15 K) of 0.0169. It also gave a solubility (mole fraction) (in n-butyl acetate, 293.15 K) of 0.0194, a solubility (mole fraction) (in n-butyl acetate, 298.15 K) of 0.0228 and a solubility (mole fraction) (in n-butyl acetate, 303.15 K) of 0.0263. For the same molecule, the solubility (mole fraction) (in n-butyl acetate, 308.15 K) was 0.0307, the solubility (mole fraction) (in n-butyl acetate, 313.15 K) was 0.0364 and the solubility (mole fraction) (in n-butyl acetate, 318.15 K) was 0.0411. The solubility (mole fraction) (in n-butyl acetate, 323.15 K) was 0.0496, the solubility (mole fraction) (in n-pentanol, 278.15 K) was 0.0232 and the solubility (mole fraction) (in n-pentanol, 283.15 K) was 0.0294. For the same molecule, the solubility (mole fraction) (in n-pentanol, 288.15 K) was 0.0362, the solubility (mole fraction) (in n-pentanol, 293.15 K) was 0.0429 and the solubility (mole fraction) (in n-pentanol, 298.15 K) was 0.0532. It also gave a solubility (mole fraction) (in n-pentanol, 303.15 K) of 0.0646, a solubility (mole fraction) (in n-pentanol, 308.15 K) of 0.0769 and a solubility (mole fraction) (in n-pentanol, 313.15 K) of 0.093. The solubility (mole fraction) (in n-pentanol, 318.15 K) was 0.114, the solubility (mole fraction) (in n-pentanol, 323.15 K) was 0.14 and the solubility (mole fraction) (in n-propanol, 278.15 K) was 0.0282. It also gave a solubility (mole fraction) (in n-propanol, 283.15 K) of 0.0343, a solubility (mole fraction) (in n-propanol, 288.15 K) of 0.0456 and a solubility (mole fraction) (in n-propanol, 293.15 K) of 0.0553. It also gave a solubility (mole fraction) (in n-propanol, 298.15 K) of 0.0678, a solubility (mole fraction) (in n-propanol, 303.15 K) of 0.0839 and a solubility (mole fraction) (in n-propanol, 308.15 K) of 0.104. For the same molecule, the solubility (mole fraction) (in n-propanol, 313.15 K) was 0.129, the solubility (mole fraction) (in n-propanol, 318.15 K) was 0.159 and the solubility (mole fraction) (in n-propanol, 323.15 K) was 0.197. It also gave a solubility (mole fraction) (in n-propyl acetate, 278.15 K) of 0.0131, a solubility (mole fraction) (in n-propyl acetate, 283.15 K) of 0.0155 and a solubility (mole fraction) (in n-propyl acetate, 288.15 K) of 0.0187. The solubility (mole fraction) (in n-propyl acetate, 293.15 K) was 0.0217, the solubility (mole fraction) (in n-propyl acetate, 298.15 K) was 0.0257 and the solubility (mole fraction) (in n-propyl acetate, 303.15 K) was 0.0296. The solubility (mole fraction) (in n-propyl acetate, 308.15 K) was 0.0351, the solubility (mole fraction) (in n-propyl acetate, 313.15 K) was 0.0411 and the solubility (mole fraction) (in n-propyl acetate, 318.15 K) was 0.0486. The solubility (mole fraction) (in n-propyl acetate, 323.15 K) was 0.0575.
